Test results: article PMC10098062 (Molecular Plant Pathology, 2023)

Biological target: SstF F299A (SFN-sensing transcription factor, LysR family) (Xanthomonas campestris, UniProt Q8PAP2, F299A)
Test: biochemical

C[S+]([O-])CCCCN=C=S (stereo not shown) [SFN, Sulforaphane]
Kd: 143 µM
